One assay relates to Alternaria solani. Description: Inhibition of fungus in a nutrient solution: Alternaria solani.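 Further: 0 means no fungus growth and higher grades mean more surface covered.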 In kind it is cell-based. To be noted: 6 days at 21-23° C.
Assay [1] relates to Fusarium avenaceum. Description: Threshold concentration test in case of Fusarium avenaceum (infested soil, garden peas). It counts as in vivo. To be noted: for number of sound peas: 20 grains per dish, 18 days at 20-24° C.; for root evaluation (1-4): 18 days. Summed up:
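Soil heavily infested with Fusarium avenaceum was mixed uniformly with a 20% powder formulation of active agent, then sown immediately with 20 garden pea seeds ('Wunder von Kelvedon') per dish. After 18 days in a greenhouse at 20° to 24° C., sound plants were counted and roots scored on a 1–4 scale.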

In assay [2] the test system is root gall nematodes (Meloidogyne sp.). Description: Threshold concentration test with root gall nematodes (cucumber, infested soil). In kind it is in vivo. The note with it: 28 days at 24-27° C. From the text:
Threshold concentration test with root gall nematodes (Meloidogyne sp.)
20% concentration pulverulent active agents as listed in the table below were mixed in a uniform manner with a soil which had been heavily infested by root gall nematodes. After waiting for 3 days the treated soil was placed in two clay dishes of a capacity of 0.5 liter. 10 grain of cucumber seeds of the type "Guntruud" were placed into each dish.
Thereafter, the contents of the dishes were permitted to develop at a temperature of 24° to 27° C. for a time of 28 days in a hothouse. The cucumber roots were then washed out and were examined in a water bath regarding nematode infestation. The reduction of the infestation by the active agents as compared with untreated control material was determined in percentages.
The nematocidal activity was calculated by the formula
A=the infestation in the untreated control material and
B=the infestation after treatment.

The test system of assay [3] is Fusarium avenaceum. Description: Inhibition of fungus in a nutrient solution: Fusarium avenaceum.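 Further: 0 means no fungus growth and higher grades mean more surface covered.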 It counts as cell-based. To be noted: 6 days at 21-23° C. Summed up:
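Grape juice/water (1:1) nutrient solution mixed with powdered test agent, then inoculated with conidia. Surface fungal growth scored on a 0–5 scale after 6 days at 21–23 °C.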

The subject of a further assay is Penicillium digitatum. Description: Inhibition of fungus in a nutrient solution: Penicillium digitatum.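 Further: 0 means no fungus growth and higher grades mean more surface covered.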 It counts as cell-based. To be noted: 6 days at 21-23° C.
The test system of assay [4] is Botrytis cinerea. Description: Inhibition of fungus in a nutrient solution: Botrytis cinerea.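 Further: 0 means no fungus growth and higher grades mean more surface covered.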 It counts as cell-based. The note with it: 6 days at 21-23° C.
The test system of a further assay is Pythium ultimum. The experiment in a line: Threshold concentration test for use of the compounds against Pythium ultimum (infested soil, garden peas). In kind it is in vivo. The arrangement: key to root evaluation (1-4): 4: white roots without fungous necrosis; 3: white roots, minor fungous necrosis; 2: brown roots, already more pronounced fungous necrosis; 1: heavy fungous necrosis, roots rotted. To be noted: for root evaluation (1-4): 3 weeks; for number of sound peas: 20 grains per dish, 3 weeks at 20-24° C. Summed up:
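Pulverulent agents at 20% concentration mixed evenly into soil heavily infested with Pythium ultimum, then garden peas ('Wunder von Kelvedon', 20 per dish) sown at once. After three weeks at 20–24 °C in a hothouse, sound peas counted and roots scored on a 1–4 scale.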

The test system of the next assay is Septoria nodorum. The experiment in a line: Treatment of oat seeds against Septoria nodorum. It counts as in vivo. The note with it: 4 weeks. How it is done: Effects of the treatment of oat seeds against Septoria nodorum
They were then seeded on a moist substrate for germination. As a control untreated seeds were likewise seeded. At about 6° C. the seed was incubated in an air-conditioned chamber until after 4 weeks the proportion of diseased seeds could be determined and the activity of the fungicidal compounds was calculated on the basis of the following formula: [formula]
The active agents were applied in the form of 20% concentration pulverulent compositions.

The next assay relates to Ustilago avenae. Description: Oat seed treatment for Ustilago avenae. In kind it is in vivo. The note with it: 10 weeks.
Assay [5] concerns Helminthosporium gramineum. The experiment in a line: Seed treatment in open field tests for infestation by Helminthosporium gramineum (barley). It counts as in vivo. The protocol:
Seed treatment in open field tests for infestation by Helminthosporium gramineum
The active agents were used in the form of pulverulent compositions. After about 8 months in case of winter barley and after about 3 months in case of summer barley the infested plants were counted and the activity was calculated by the formula [formula]

The test system of assay [6] is Tilletia caries. The experiment in a line: Seed treatment in open field tests regarding infestation by Tilletia caries (oats). It counts as in vivo.
A further assay has as its system Fusarium nivale. Description: Treatment of rye seeds against Fusarium nivale. The note with it: 100 g/100 kg; about 4 weeks. It counts as in vivo. How it is done:
Treatment of rye seeds against Fusarium nivale
Rye seeds with a natural infestation by Fusarium nivale were seeded in earth filled pots and left for germination at about 6° C. Part of the seeds was treated before seeding with the active agents as appears from the subsequent table and part was untreated. After emergence of the seedlings the plants were illuminated with artificial light for 12 hours each day. After about 4 weeks the degree of infestation was determined in percentages. The fungicidal activity was calculated on the basis of the following formula: [formula]
The active agents were used in the form of 20% concentration compositions.

For a further assay, the system named is Piricularia oryzae. In kind it is in vivo. The note with it: 5 days.
The subject of the next assay is Venturia inaequalis. The experiment in a line: Prophylactic leaf treatment of apples in open field test against Venturia inaequalis. It counts as in vivo. The note with it: 3 weeks.
In assay [7] the test system is Botrytis cinerea. The experiment in a line: Prophylactic leaf treatment of tomato plants against Botrytis cinerea. The note with it: concentration of 0.025 of the active agent (unit not given). It counts as in vivo.
Assay [8] concerns Tilletia caries. Description: Treatment of oat seeds infested with Tilletia caries (spore germination). It counts as in vivo.
The mark [9] stands for this setting: summer barley, 25 g active agent/100 kg barley, about 3 months.
Where [10] appears, read: summer barley, 50 g active agent/100 kg barley, about 3 months.
Setting [11] is: summer barley, 100 g active agent/100 kg barley, about 3 months.
Setting [12] is: winter barley, 25 g active agent/100 kg barley, about 8 months.
Where [13] appears, read: winter barley, 50 g active agent/100 kg barley, about 8 months.
Setting [14] is: winter barley, 75 g active agent/100 kg barley, about 8 months.
[15] abbreviates: concentration of active agent 0.1 (percentages).
The mark [16] stands for this setting: 20 g active agent per 100 kg, about 5 weeks.
The mark [17] stands for this setting: 50 g active agent per 100 kg, about 5 weeks.

Where two headings read alike, the source gives them in different places.

With `CS(=O)(=O)c1nnc(C#N)s1` [5-methylsulfonyl-1,3,4-thiadiazole-2-carbonitrile], the “fungus development on the surface of the nutrient solution (0-5)” value in the assay on Alternaria solani (0.002%) came out at 0; in the assay with Alternaria solani (0.004%), 0; in the assay with Fusarium avenaceum [3] (0.002%), 0; in the assay on Fusarium avenaceum [3] (0.004%), 0; in the assay with Penicillium digitatum (0.002%) it was 1; in the assay with Penicillium digitatum (0.004%), 0. In addition, the figures for the “fungus development on the surface of the nutrient solution (0-5)” value in the assay with Botrytis cinerea [4] (0.002%) and with Botrytis cinerea [4] (0.004%) were 1 and 0, respectively. Besides, the “number of sound peas” value in the assay on Fusarium avenaceum [1] (25 mg/l soil) is 18; in the assay with Fusarium avenaceum [1] (50 mg/l soil) it was 17; with Fusarium avenaceum [1] (100 mg/l soil), 19; in the assay with Pythium ultimum (20 mg/l soil), 17; in the assay with Pythium ultimum (40 mg/l soil) it was 16; in the assay on Pythium ultimum (80 mg/l soil), 20. The “root evaluation (1-4)” value worked out at 4 with Fusarium avenaceum [1] (25 mg/l soil); 4 in the assay on Fusarium avenaceum [1] (50 mg/l soil); 4 in the assay with Fusarium avenaceum [1] (100 mg/l soil); 3 in the assay on Pythium ultimum (20 mg/l soil); 4 with Pythium ultimum (40 mg/l soil); 4 in the assay with Pythium ultimum (80 mg/l soil). Moreover, the “Percentage reduction of infestation” value in [2] (50 mg per liter soil) was 71%; in [2] (100 mg per liter soil) it was 88%; in assay [2] (200 mg per liter soil), 96%.

For the compound `CS(=O)(=O)c1nnc(C(N)=O)s1` [5-methylsulfonyl-1,3,4-thiadiazole-2-carboxamide], the “% activity” value in the assay with Septoria nodorum (50 g active agent/100 kg seeds) was 91%; in the assay on Ustilago avenae (100 g active agent/100 kg), 84%; with Ustilago avenae (150 g active agent/100 kg), 90%; in assay [5] (setting [9]), 95%; in assay [5] (setting [10]), 100%; in assay [5] (setting [11]) it was 100%. Moreover, the “% activity” value in [5] (setting [12]) amounted to 90%; in assay [5] (setting [13]), 96%; in assay [5] (setting [14]) it was 100%; in [5] (winter barley, 100 g active agent/100 kg barley, about 8 months), 100%; in the assay with Tilletia caries [6] (winter oats, 25 g active agent/100 kg, about 9 months) it was 100%; in the assay with Tilletia caries [6] (winter oats, 50 g active agent/100 kg, about 9 months), 100%. The “% activity” value is given as 100% in the assay with Tilletia caries [6] (winter oats, 100 g active agent/100 kg, about 9 months); 99% with Fusarium nivale; 96% in the assay on Piricularia oryzae (setting [15]); 95% in the assay with Helminthosporium gram (10 g active agent per 100 kg, about 5 weeks); 100% in the assay on Helminthosporium gram (setting [16]); 100% in the assay with Helminthosporium gram (setting [17]). Also, the “root evaluation (1-4)” value in the assay on Pythium ultimum (20 mg/l soil), with Pythium ultimum (40 mg/l soil) and in the assay on Pythium ultimum (80 mg/l soil) was 4 throughout. Besides, the “number of sound peas” value stood at 16 in the assay with Pythium ultimum (20 mg/l soil), 18 in the assay on Pythium ultimum (40 mg/l soil) and 20 with Pythium ultimum (80 mg/l soil).

As for `CNC(=O)c1nnc(S(C)(=O)=O)s1` [5-methylsulfonyl-1,3,4-thiadiazole-2-carboxylic acid methylamide], the “% activity” value with Septoria nodorum (50 g active agent/100 kg seeds) was found to be 93%; with Venturia inaequalis (concentration of active agent 0.005 (in gram)) it was 90%; in the assay with Venturia inaequalis (concentration of active agent 0.025 (in gram)) it was 92%; in the assay on Botrytis cinerea [7], 78%; in the assay on Ustilago avenae (100 g active agent/100 kg) it was 90%; in [5] (setting [9]) it was 93%. The “% activity” value is recorded as 100% in assay [5] (setting [10]); 100% in assay [5] (setting [11]); 99.5% in assay [5] (setting [12]); 99.5% in assay [5] (setting [13]); 100% in assay [5] (setting [14]); 100% in the assay on Tilletia caries [6] (summer oats, 50 g active agent/100 kg, about 4 months). The “% activity” value with Fusarium nivale is on record as 100%; with Piricularia oryzae (concentration of active agent 0.02 (percentages)), 65%; in the assay on Piricularia oryzae (setting [15]), 91%; with Helminthosporium gram (setting [16]), 99%; in the assay on Helminthosporium gram (setting [17]), 100%. For the same compound, the “root evaluation (1-4)” value with Pythium ultimum (20 mg/l soil), with Pythium ultimum (40 mg/l soil) and with Pythium ultimum (80 mg/l soil) was 4 throughout. For the same compound, the “number of sound peas” value in the assay on Pythium ultimum (20 mg/l soil) is 20; with Pythium ultimum (40 mg/l soil), 18; in the assay on Pythium ultimum (80 mg/l soil), 18.

On to “Methoxyethyl-Hg--silicate [reference compound]”, for which the “% activity” value is listed as 86% with Septoria nodorum (1.3 g active agent/100 kg seeds); 90% in the assay with Tilletia caries [8] (1.3 g active agent per 100 kg); 100% with Tilletia caries [8] (2.6 g active agent per 100 kg); 66% with Ustilago avenae (16 g active agent/100 kg); 99.8% in [5] (summer barley, 5.2 g active agent/100 kg barley); 100% in assay [5] (summer barley, 10.4 g active agent/100 kg barley). Further, the “% activity” value in assay [5] (winter barley, 2.6 g active agent/100 kg barley) came out at 99.4%; in assay [5] (winter barley, 5.2 g active agent/100 kg barley) it was 100%; in the assay on Tilletia caries [6] (summer oats, 2.6 g active agent/100 kg, about 4 months), 99%; in the assay with Tilletia caries [6] (winter oats, 5.3 g active agent/100 kg, about 9 months) it was 99%; with Helminthosporium gram (0.2 g active agent per 100 kg) it was 63%; in the assay on Helminthosporium gram (0.5 g active agent per 100 kg), 91%. Moreover, the “% activity” value with Helminthosporium gram (1.0 g active agent per 100 kg) came out at 98%.

Source of the values: patent US4281121A, “1,3,4-Thiadiazole-2-carboxylic acid derivatives, process for making the same and fungicidal and nematocidal compositions containing same” (Schering Aktiengesellschaft, priority 1978, dated 1981).
